Experimental data taken from patent US12459940B2, “Oxazole compound as multi-targeted inhibitor of IRAK4 and BTK” (SHANGHAI FOSUN PHARMACEUTICAL INDUSTRIAL DEVELOPMENT CO., …, priority 2019, dated 2025).
Where two headings read alike, the source gives them in different places.

Assays:
[1] = system: OCI-LY10 human B-cell lymphoma cells; experiment: OCI-LY10 cell proliferation inhibition (CellTiter-Glo); assay type: cell-based; conditions: OCI-Ly10, 72 h, treated for 3 days
Method: OCI-LY10 human B-cell lymphoma cells were cultured in a 37° C., 5% CO2 incubator. The composition of medium was IMDM (GIBCO, Cat #12440053); the supplementary compositions were 20% FBS (Hyclone, Cat #SH30084.03); 1% PenStrep (Thermo, Cat #SV30010).
The tumor cell lines OCI-LY10 and TMD8 were used to detect the effect of the compound on inhibiting tumor cell proliferation in vitro. The tumor cell line was cultured in a 37° C., 5% CO2 incubator according to the culture conditions shown, and passaged regularly, then the cells in the logarithmic growth phase were taken, counted, and spread in a 96-well plate (the cells in each well were adjusted to an appropriate concentration, a total of […] per well was added). After incubating overnight in a 37° C., 5% CO2 incubator, drugs with different concentration gradients (10 μL of drug solution was added) were added and treated for 3 days, then 50 μL of CellTiter-Glo working solution was added to each well, and the cell plate was wrapped with aluminum foil to avoid light. The culture plate was shaken on an orbital shaker for 2 minutes to induce cell lysis, and placed at room temperature for 10 minutes to stabilize the luminescence signal, then the luminescence signal was detected on the 2104 EnVision plate reader.
The Inhibition rate (IR) of the tested compound was calculated using the following formula: IR (%)=(1−(RLU compound−RLU blank control)/(RLU solvent control−RLU blank control))*100%.
The inhibition rates of different concentrations of the compounds were calculated in Excel, and then the inhibition curves were made by GraphPad Prism software and the related parameters were calculated, including the minimum inhibition rate, the maximum inhibition rate and IC50.

human IRAK4 = target: T1, human IRAK4 (Homo sapiens, UniProt Q9NWZ3); experiment: In vitro IRAK4 kinase activity, 33P isotope-labeled kinase activity assay (Reaction Biology Corp); assay type: biochemical
T1 construct: purchased Reaction Biology Corp
T1 sequence (Q9NWZ3 1-460): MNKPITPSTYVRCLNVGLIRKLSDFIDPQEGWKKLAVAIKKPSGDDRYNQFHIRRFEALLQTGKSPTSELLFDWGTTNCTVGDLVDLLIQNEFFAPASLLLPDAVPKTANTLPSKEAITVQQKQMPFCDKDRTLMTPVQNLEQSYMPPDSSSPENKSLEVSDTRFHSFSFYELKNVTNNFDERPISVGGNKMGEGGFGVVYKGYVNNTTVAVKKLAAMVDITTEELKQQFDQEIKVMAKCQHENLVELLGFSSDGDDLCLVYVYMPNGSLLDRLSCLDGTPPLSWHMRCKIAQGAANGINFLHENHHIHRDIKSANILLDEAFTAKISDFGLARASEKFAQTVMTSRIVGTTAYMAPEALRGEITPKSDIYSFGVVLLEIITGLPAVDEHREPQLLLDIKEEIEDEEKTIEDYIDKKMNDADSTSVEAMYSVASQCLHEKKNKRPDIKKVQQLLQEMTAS
Method: The IC50 values were determined using ^33P isotope-labeled kinase activity assay (Reaction Biology Corp) to evaluate the inhibitory ability of the tested compounds on human IRAK4.
(§1) Buffer conditions: 20 mM Hepes (pH 7.5), 10 mM MgCl2, 1 mM EGTA, 0.02% Brij35, 0.02 mg/mL BSA, 0.1 mM Na3VO4, 2 mM DTT, 1% DMSO.
Test procedure: At room temperature, the tested compound was dissolved in DMSO to prepare a 10 mM solution for later use. The substrate was dissolved in a newly prepared buffer solution, and the tested IRAK4 kinase was added thereto and mixed evenly. The DMSO solution dissolved with the tested compound was added to the above reaction mixture mixed evenly using acoustic technique (Echo 550). After incubation for 15 minutes, ^33P-ATP was added to initiate the reaction.

[2] = system: TNF-α production in THP-1 cells; experiment: THP-1 cytological TNFa ELISA assay (LPS-stimulated); assay type: cell-based; conditions: Homo sapiens, TNF-α in culture supernatant, 150 ng/mL LPS, 18 hours
Method: THP-1 human acute […] leukemia cells were purchased from ATCC (Cat #TIB-202) and cultured at 37° C. in 5% CO2 incubator. The composition of medium was RPMI1640 (Gibco, Cat #22400-105), and the supplementary compositions were 10% FBS (Gibco, Cat #10091148); 1% PenStrep (Gibco, Cat #15140); 0.05 mM 2-Mercaptoethanol (Sigma, Cat #M6250).
TNF-α Elisa kit was used to detect the content of TNF-α in cell culture supernatant samples. TNF-α was produced by stimulating THP-1 cells with 150 ng/mL LPS (Sigma, Cat #L6529).
THP-1 cells cultured normally at logarithmic growth stage were seeded in a 96-well plate (Corning #3599) at a certain concentration (1*10^5/100 μL) and then put into a cell incubator for incubation. After two hours, 16.7 μL of different concentrations of the compound to be tested (8*final concentration) were added and incubated in an incubator. After one hour, 16.7 μL of 1200 ng/mL LPS was added and incubated in an incubator. After 18 hours, the culture supernatant samples were collected by centrifugation, and the content of TNF-α could be detected by TNF-α Elisa kit. Finally, OD signals (OD450-OD570) were read on envision board reader.
The OD450-OD570 signal value was converted into a percentage inhibition rate. Inhibition rate %=(ZPE−sample)/(ZPE−HPE)*100.
“HPE” refers to the OD450-OD570 signal value of the control well without LPS stimulated cells, and “ZPE” refers to the OD450-OD570 signal value of the control well with LPS stimulated cells. The IC50 value of the compound was calculated by XLFit in the excel add-in. Y=Bottom+(Top−Bottom)/(1+(IC50/X)^HillSlope). Equation: […]

human BTK = target: T2, human BTK (Homo sapiens, UniProt Q06187); experiment: In vitro BTK kinase activity, 33P isotope-labeled kinase activity assay (Reaction Biology Corp); assay type: biochemical; conditions: 33P-ATP, 2 hours at room temperature
T2 construct: purchased Reaction Biology Corp
Method: The IC50 values were determined using ^33P isotope-labeled kinase activity assay (Reaction Biology Corp) to evaluate the inhibitory ability of the tested compounds on human BTK.
as §1
Test procedure: At room temperature, the tested compound was dissolved in DMSO to prepare a 10 mM solution for later use. The substrate was dissolved in a newly prepared buffer solution, and the tested BTK kinase was added thereto and mixed evenly. The compound dissolved in DMSO was added to the kinase reaction mixture through Echo 550 (Acoustic technology; Nanoliter range). After incubation for 20 minutes at room temperature, ^33P-ATP was added to initiate the reaction. The reaction was carried out at room temperature for 2 hours, and the radioactivity of the reaction liquid point was detected by filtration-binding method with P81 ion exchange filter paper. The kinase activity data were expressed by comparing the kinase activity of the group containing the tested compound with the kinase activity of the blank group (only containing DMSO), and the IC50 value was obtained by curve fitting by Prism4 software (GraphPad), the experimental results are shown in Table 10.

[3] = 33P-ATP, 120 minutes at room temperature, read-out: IRAK4/IC50

T2 sequence (Q06187 whole entry): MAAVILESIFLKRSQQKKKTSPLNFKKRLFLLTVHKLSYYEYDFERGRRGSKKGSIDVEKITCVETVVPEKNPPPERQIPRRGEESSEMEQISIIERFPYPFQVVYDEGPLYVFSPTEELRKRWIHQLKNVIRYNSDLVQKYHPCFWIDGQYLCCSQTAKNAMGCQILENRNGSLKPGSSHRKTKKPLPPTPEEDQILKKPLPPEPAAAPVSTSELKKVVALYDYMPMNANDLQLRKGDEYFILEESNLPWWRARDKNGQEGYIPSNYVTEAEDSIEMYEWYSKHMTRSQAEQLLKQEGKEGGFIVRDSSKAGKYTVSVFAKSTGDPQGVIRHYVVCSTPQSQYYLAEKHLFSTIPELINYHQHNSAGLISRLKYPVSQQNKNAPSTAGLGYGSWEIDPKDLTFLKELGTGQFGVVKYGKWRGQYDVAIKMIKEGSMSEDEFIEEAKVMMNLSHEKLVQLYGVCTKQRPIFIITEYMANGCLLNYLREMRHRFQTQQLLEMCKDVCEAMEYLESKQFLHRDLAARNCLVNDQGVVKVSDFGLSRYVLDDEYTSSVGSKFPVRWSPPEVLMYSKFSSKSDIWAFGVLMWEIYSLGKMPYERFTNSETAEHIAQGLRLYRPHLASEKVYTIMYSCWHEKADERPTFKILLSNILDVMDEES

Compound | IC50 [1] | IC50 (human IRAK4) | IC50 [2] | IC50 (human BTK) | IC50 (human IRAK4; [3])
Cc1cc(-c2nc(C(=O)Nc3cn4cc(CCC(C)(C)O)nc4cc3-c3ccc(Cl)cc3)co2)ccn1 [WX030] | 209 nM |  |  |  | 
CC(C)c1cc(-c2nc(C(=O)Nc3cn4cc(CCC(C)(C)O)nc4cc3N3CCCCC3)co2)ccn1 [WX011] |  | 1.5 nM | 140 nM | 23.6 nM | 
Cc1cc(-c2nc(C(=O)Nc3cn4cc(CCC(=O)O)nc4cc3N3CCC(CO)CC3)co2)ccn1 [WX020] |  | 0.5 nM |  | 8.5 nM | 
Cc1cc(-c2nc(C(=O)Nc3cn4cc(CCC(C)(C)O)nc4cc3N3CCNCC3)co2)ccn1 [WX003] |  | 2.2 nM | 557 nM |  | 
Cc1cc(-c2nc(C(=O)Nc3cn4cc(CCC(C)(C)O)nc4cc3-c3ccccc3F)co2)ccn1 [WX024] | 208 nM | 0.7 nM | 13 nM | 30.5 nM | 
Cc1cc(-c2nc(C(=O)Nc3cn4cc(CCC(C)(C)O)nc4cc3-c3ccc(F)cc3)co2)ccn1 [WX026] | 349 nM |  |  | 30.7 nM | 
Cc1cc(-c2nc(C(=O)Nc3cn4cc(CCC(C)(C)O)nc4cc3C3CC3)co2)ccn1 [WX007] |  |  | 240 nM |  | 2 nM
Cc1cc(-c2nc(C(=O)Nc3cn4cc(CCC(C)(C)O)nc4cc3-c3ccccc3C(N)=O)co2)ccn1 [WX027] |  |  |  |  | 11 nM
COC(=O)N1CCN(c2cc3nc(CCC(C)(C)O)cn3cc2NC(=O)c2coc(-c3ccnc(C)c3)n2)CC1 [WX004] |  | 1.3 nM | 77 nM |  | 
Cc1cc(-c2nc(C(=O)Nc3cn4cc(CCC(=O)O)nc4cc3-c3ccccc3)co2)ccn1 [WX039] |  |  |  | 29 nM | 1 nM
Cc1cc(-c2nc(C(=O)Nc3cn4cc(CCC(C)(C)O)nc4cc3N3CCOCC3)co2)ccn1 [WX002] |  | 1.2 nM |  |  | 
Cc1cc(-c2nc(C(=O)Nc3cn4cc(CCC(C)(C)O)nc4cc3N3CCC(C(=O)O)CC3)co2)ccn1 [WX046] |  |  |  | 43.1 nM | 2.5 nM
Cc1cc(-c2nc(C(=O)Nc3cn4cc(CCC(=O)O)nc4cc3N3CCCCC3)co2)ccn1 [WX018] |  | 0.9 nM | 104 nM | 47.5 nM | 
CC(C)(O)CCc1cn2cc(NC(=O)c3coc(-c4ccnc(C(N)=O)c4)n3)c(N3CCCCC3)cc2n1 [WX044] |  |  |  |  | 1.9 nM
Cc1cc(-c2nc(C(=O)Nc3cn4cc(CCC(C)(C)O)nc4cc3-c3cccs3)co2)ccn1 [WX032] | 386 nM |  |  | 26.5 nM | 
Cc1cc(-c2nc(C(=O)Nc3cn4cc(CCC(C)(C)O)nc4cc3N3CCC(O)CC3)co2)ccn1 [WX006] |  | 1.2 nM | 107 nM | 47.5 nM | 
